Test results: patent US11274073B2, “TRPV1 modulator compounds” (ANTALGENICS, S.L., priority 2017, dated 2022)

Target: T1, rat TRPV1 channel (Rattus norvegicus, UniProt O35433)
T1 construct: expressed in transfected cells; host or cells: SH-SY5Y (human neuroblastoma) stably expressing rat TRPV1, under puromycin selection
Assay: Calcium microfluorometry assay on TRPV1-SH-SY5Y cells, single concentration 10 μM
Type: cell-based
Conditions: for TRPV1 activation at 10 μM (% ± SD): compound 10 μM, Fluo-4 NW fluorescence, Cap (10 μM capsaicin) = 100%; for TRPV1 blockage at 10 μM (% ± SD): compound 10 μM before stimulation with 10 μM capsaicin, RR (10 μM Ruthenium Red) = 100%
Protocol: The activity of the compounds was determined on TRPV1 expressing cells (TRPV1-SH-SY5Y) by Calcium microfluorometry assay.
SH-SY5Y cells stably expressing rat TRPV1 channel (SH-SY5Y-TRPV1) were grown in Earle's minimum essential medium (MEM) containing 10% (v/v) of FCS, 1% nonessential amino acids, 2 mM L-glutamine, 100 μg/ml streptomycin, 100 U/ml penicillin, and 0.4 μg/ml puromycin in a humidity-controlled incubator with 5% CO2 and at 37° C. For fluorescence assays, cells expressing TRPV1 channel (TRPV1-SH-SY5Y) were seeded in 96-well plates (Corning Incorporated, Corning, N.Y.) at a cell density of 40,000 cells 2 days before treatment. The day of treatment the medium was replaced with 100 μL of the dye loading solution Fluo-4 NW supplemented with probenecid 2.5 mM. After incubation at 37° C. in a humidified atmosphere of 5% CO2 for 60 minutes, plates were transferred to a fluorescence plate reader (Polastar Omega BMG Labtech). The baseline fluorescence of Fluo-4 dye ([…]) was recorded for 4 cycles. […] The antagonist (10 μM Ruthenium Red for TRPV1) was added for the blockade. The changes in fluorescence intensity were recorded during 10 cycles more.

T1 sequence (O35433 whole entry): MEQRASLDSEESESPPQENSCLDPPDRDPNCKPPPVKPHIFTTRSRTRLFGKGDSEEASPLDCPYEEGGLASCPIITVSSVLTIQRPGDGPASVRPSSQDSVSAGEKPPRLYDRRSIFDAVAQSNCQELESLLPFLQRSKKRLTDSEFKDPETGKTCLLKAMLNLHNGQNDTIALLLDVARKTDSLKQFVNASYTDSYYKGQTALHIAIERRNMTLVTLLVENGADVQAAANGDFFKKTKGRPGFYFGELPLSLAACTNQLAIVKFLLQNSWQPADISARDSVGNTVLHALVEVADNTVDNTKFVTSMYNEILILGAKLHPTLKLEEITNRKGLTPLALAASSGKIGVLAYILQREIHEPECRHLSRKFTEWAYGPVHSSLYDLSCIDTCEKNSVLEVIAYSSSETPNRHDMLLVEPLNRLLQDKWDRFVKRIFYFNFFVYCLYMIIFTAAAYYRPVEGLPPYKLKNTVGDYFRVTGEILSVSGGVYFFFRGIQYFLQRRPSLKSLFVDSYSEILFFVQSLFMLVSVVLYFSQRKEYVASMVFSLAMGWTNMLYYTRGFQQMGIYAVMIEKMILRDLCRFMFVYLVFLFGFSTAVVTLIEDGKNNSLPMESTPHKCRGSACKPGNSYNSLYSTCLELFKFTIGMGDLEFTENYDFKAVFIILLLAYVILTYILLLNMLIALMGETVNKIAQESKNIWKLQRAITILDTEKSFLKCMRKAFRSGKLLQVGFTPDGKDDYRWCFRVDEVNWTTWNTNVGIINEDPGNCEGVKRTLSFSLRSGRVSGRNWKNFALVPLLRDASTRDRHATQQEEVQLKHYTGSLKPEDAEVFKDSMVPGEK

| Structure (SMILES) | TRPV1 activation at 10 μM (% ± SD) [%] | TRPV1 blockage at 10 μM (% ± SD) [%] |
| --- | --- | --- |
| CCCCCCCC/C=C\CCCCCCCCCCCC(=O)OCC(=O)NCc1ccc(O)c(OC)c1 [Ex-48, (Z)-2-((4-hydroxy-3-methoxybenzyl)amino)-2-oxoethyl docos-13-enoate] | 47.40 ± 14.56 | – |
| CCCCC/C=C\C/C=C\C/C=C\C/C=C\CCCC(=O)OCC(=O)NCc1ccc(O)c(OC)c1 [Ex-50, (5Z,8Z,11Z,14Z)-2-((4-hydroxy-3-methoxy-benzyl)amino)-2-oxoethyl icosa-5,8,11,14-tetraenoate] | 73.80 ± 7.42 | – |
| C/C=C/C=C/C(=O)OCC(=O)NCc1ccc(O)c(OC)c1 [Ex-24, (2E,4E)-2-((4-hydroxy-3-methoxybenzyl)amino)-2-oxoethyl hexa-2,4-dienoate] | 75.59 ± 6.25 | – |
| N.N.N.N.N.N.N.N.N.N.N.N.N.N.[Cl-].[Cl-].[Cl-].[Cl-].[Cl-].[Cl-].[O-2].[O-2].[Ru+3].[Ru+3].[Ru+4] [RR, Ruthenium Red, reference compound] | – | 100 |
| CCCCC/C=C\C/C=C\C/C=C\C/C=C\CCCC(=O)OCC(=O)NCc1cc(OC)c(O)cc1I [Ex-51, (5Z,8Z,11Z,14Z)-2-((4-hydroxy-2-iodo-5-methoxy-benzyl)amino)-2-oxoethyl icosa-5,8,11,14-tetraenoate] | – | 30.85 ± 5.87 |
| CCCCCCCCCCCCCCC(=O)OCC(=O)NCc1cc(OC)c(O)cc1I [Ex-39, 2-((4-hydroxy-2-iodo-5-methoxybenzyl)amino)-2-oxoethyl pentadecanoate] | – | 21.82 ± 4.75 |
| CCCCCC[C@@H](O)C/C=C\CCCCCCCC(=O)OCC(=O)NCc1cc(OC)c(O)cc1I [Ex-45, (R,Z)-2-((4-hydroxy-2-iodo-5-methoxybenzyl)amino)-2-oxoethyl 12-hydroxyoctadec-9-enoate] | – | 21.74 ± 7.05 |
| CCCCCCCC/C=C\CCCCCCCC(=O)OCC(=O)NCc1ccc(O)c(OC)c1 [Ex-42, 2-((4-hydroxy-3-methoxy-benzyl)amino)-2-oxoethyl oleate] | 77.19 ± 11.95 | – |
| CCCCCC[C@@H](O)C/C=C\CCCCCCCC(=O)OCC(=O)NCc1ccc(O)c(OC)c1 [Ex-44, (R,Z)-2-((4-hydroxy-3-methoxybenzyl)amino)-2-oxoethyl 12-hydroxyoctadec-9-enoate] | 60.84 ± 12.80 | – |
| CCCCCCCCC(=O)OCC(=O)NCc1cc(OC)c(O)cc1I [Ex-31, 2-((4-hydroxy-2-iodo-5-methoxybenzyl)amino)-2-oxoethyl nonanoate] | – | 25.23 ± 7.63 |
| CCCCCCCC(=O)OCC(=O)NCc1ccc(O)c(OC)c1 [Ex-28, 2-((4-hydroxy-3-methoxy-benzyl)amino)-2-oxoethyl octanoate] | 54.08 ± 4.09 | – |
| CCCCCCCCCCCCCCC(=O)OCC(=O)NCc1ccc(O)c(OC)c1 [Ex-38, 2-((4-hydroxy-3-methoxy-benzyl)amino)-2-oxoethyl pentadecanoate] | 75.96 ± 9.86 | – |
| CCCCCC[C@H](C/C=C\CCCCCCCC(=O)OCC(=O)NCc1cc(OC)c(O)cc1I)OC(=O)Cc1ccccc1 [Ex-47, (Z)-2-((4-hydroxy-2-iodo-5-methoxybenzyl)amino)-2-oxoethyl 12-(2-phenyl-acetoxy)octadec-9-enoate] | – | 63.29 ± 12.80 |
| C/C=C/C=C/C(=O)OCC(=O)NCc1cc(OC)c(O)cc1I [Ex-25, (2E,4E)-2-((4-hydroxy-2-iodo-5-methoxybenzyl)amino)-2-oxoethyl hexa-2,4-dienoate] | – | 13.98 ± 5.98 |
| CCCCCCCCCC(=O)OCC(=O)NCc1ccc(O)c(OC)c1 [Ex-34, 2-((4-hydroxy-3-methoxy-benzyl)amino)-2-oxoethyl decanoate] | 47.91 ± 10.32 | – |
| CCCCCCC(=O)OCC(=O)NCc1ccc(O)c(OC)c1 [Ex-26, 2-((4-hydroxy-3-methoxy-benzyl)amino)-2-oxoethyl heptanoate] | 74.41 ± 17.66 | – |
| CCCCCCCC/C=C\CCCCCCCCCCCC(=O)OCC(=O)NCc1cc(OC)c(O)cc1I [Ex-49, (Z)-2-((4-hydroxy-2-iodo-5-methoxybenzyl)amino)-2-oxoethyl docos-13-enoate] | – | 34.94 ± 5.51 |
| CC(C)=CCC/C(C)=C/C(=O)OCC(=O)NCCc1cc(O)c(O)cc1I [Ex-59, (E)-2-((4,5-dihydroxy-2-iodophenethyl)amino)-2-oxoethyl 3,7-dimethylocta-2,6-dienoate] | – | 46.3 ± 12.70 |
| CCCCCCCC/C=C\CCCCCCCC(=O)OCC(=O)NCCc1ccc(O)c(O)c1 [Ex-62, 2-((3,4-dihydroxyphenethyl)-amino)-2-oxoethyl oleate] | 78.48 ± 4.61 | – |

| Structure (SMILES) | TRPV1 activation at 10 μM (% ± SD) [%] | TRPV1 blockage at 10 μM (% ± SD) [%] |
| --- | --- | --- |
| CCCCCCCCC(=O)OCC(=O)NCc1ccc(O)c(OC)c1 [Ex-30, 2-((4-hydroxy-3-methoxybenzyl)amino)-2-oxoethyl nonanoate] | 68.45 ± 7.20 | – |
| COc1cc(CNC(=O)COC(=O)CC/C(C)=C/CC/C(C)=C/CC/C=C(\C)CCC=C(C)CCC=C(C)C)c(I)cc1O (stereo in doubt) [Ex-53, (4E,8E,12E,16E)-2-((4-hydroxy-2-iodo-5-methoxy-benzyl)amino)-2-oxoethyl 4,8,13,17,21-pentamethyl-docosa-4,8,12,16,20-pentaenoate] | – | 31.05 ± 1.46 |
| CC(C)=CCC/C(C)=C/C(=O)OCC(=O)NCCc1ccc(O)c(O)c1 [Ex-58, (E)-2-((3,4-dihydroxyphenethyl)amino)-2-oxoethyl 3,7-dimethylocta-2,6-dienoate] | 88.12 ± 9.76 | – |
| COc1cc(CNC(=O)COC(=O)CC(C)C)ccc1O [Ex-20, 2-((4-hydroxy-3-methoxy-benzyl)amino)-2-oxoethyl 3-methylbutanoate] | 35.82 ± 3.48 | – |
| CCCCCCC(=O)OCC(=O)NCc1cc(OC)c(O)cc1I [Ex-27, 2-((4-hydroxy-2-iodo-5-methoxybenzyl)amino)-2-oxoethyl heptanoate] | – | 21.80 ± 5.41 |
| CCCCCCCC(=O)OCC(=O)NCc1cc(OC)c(O)cc1I [Ex-29, 2-((4-hydroxy-2-iodo-5-methoxybenzyl)amino)-2-oxoethyl octanoate] | – | 31.23 ± 8.34 |
| CCCCCCCCCCCCCCCCCC(=O)OCC(=O)NCc1cc(OC)c(O)cc1I [Ex-41, 2-((4-hydroxy-2-iodo-5-methoxybenzyl)amino)-2-oxoethyl stearate] | – | 38.89 ± 3.53 |
| CCCC(=O)OCC(=O)NCc1cc(OC)c(O)cc1I [Ex-17, 2-((4-hydroxy-2-iodo-5-methoxybenzyl)amino)-2-oxoethyl butyrate] | – | 14.44 ± 0.27 |
| CCCCCC[C@H](C/C=C\CCCCCCCC(=O)OCC(=O)NCc1ccc(O)c(OC)c1)OC(=O)Cc1ccccc1 [Ex-46, (Z)-2-((4-hydroxy-3-methoxy-benzyl)amino)-2-oxoethyl 12-(2-phenylacetoxy)octadec-9-enoate] | 33.16 ± 9.97 | – |
| CCCCC/C=C\C/C=C\C/C=C\C/C=C\CCCC(=O)OCC(=O)NCCc1cc(O)c(O)cc1I [Ex-65, (5Z,8Z,11Z,14Z)-2-((4,5-dihydroxy-2-iodophenethyl)-amino)-2-oxoethyl icosa-5,8,11,14-tetraenoate] | – | 6.71 ± 2.18 |
| CCCCCCCCCCCCCCCCCC(=O)OCC(=O)NCc1ccc(O)c(OC)c1 [Ex-40, 2-((4-hydroxy-3-methoxy-benzyl)amino)-2-oxoethyl stearate] | 54.74 ± 17.75 | – |
| COc1cc(CNC(=O)CCCC/C=C/C(C)C)ccc1O [Capsaicin, reference compound] | 100 | – |
| CCCCCC(=O)OCC(=O)NCc1ccc(O)c(OC)c1 [Ex-22, 2-((4-hydroxy-3-methoxy-benzyl)amino)-2-oxoethyl hexanoate] | 73.32 ± 12.83 | – |
| CCCCCC(=O)OCC(=O)NCc1cc(OC)c(O)cc1I [Ex-23, 2-((4-hydroxy-2-iodo-5-methoxybenzyl)amino)-2-oxoethyl hexanoate] | – | 23.14 ± 7.81 |
| CCCCC/C=C\C/C=C\C/C=C\C/C=C\CCCC(=O)OCC(=O)NCCc1ccc(O)c(O)c1 [Ex-64, (5Z,8Z,11Z,14Z)-2-((3,4-dihydroxyphenethyl)amino)-2-oxoethyl icosa-5,8,11,14-tetraenoate] | 79.05 ± 11.25 | – |
| CCCCCCCC/C=C\CCCCCCCC(=O)OCC(=O)NCc1cc(OC)c(O)cc1I [Ex-43, 2-((4-hydroxy-2-iodo-5-methoxybenzyl)amino)-2-oxoethyl oleate] | – | 45.68 ± 14.26 |
| CCCCC(=O)OCC(=O)NCc1ccc(O)c(OC)c1 [Ex-18, 2-((4-hydroxy-3-methoxy-benzyl)amino)-2-oxoethyl pentanoate] | 29.43 ± 14.90 | – |
| CCCCCCCCCC(=O)OCC(=O)NCc1cc(OC)c(O)cc1I [Ex-35, 2-((4-hydroxy-2-iodo-5-methoxybenzyl)amino)-2-oxoethyl decanoate] | – | 20.48 ± 9.67 |
| CCCC(=O)OCC(=O)NCc1ccc(O)c(OC)c1 [Ex-16, 2-((4-hydroxy-3-methoxybenzyl)amino)-2-oxoethyl butyrate] | 25.59 ± 4.29 | – |
